# Measured values as given in patent publication US12673956B2, “Oxadiazolyl dihydropyrano[2,3-b]pyridine inhibitors of HIPK2 for treating kidney fibrosis” (ICAHN SCHOOL OF MEDICINE AT MOUNT SINAI, priority 2021, dated 2026).
# Like-named read-outs stand apart in the source and are kept apart here.
# How the values were obtained:
# [1] = test system: TGF/SMAD Signaling Pathway SBE Reporter—HEK293 Cell Line; assay: Luciferase screen, TGF/SMAD SBE reporter HEK293 cells stimulated with TGFβ; format: cell-based; conditions: Homo sapiens
# Description: For the data in Table 1, the Bight-Glo™ Luciferase Assay System from Promega was used with TGF/SMAD Signaling Pathway SBE Reporter—HEK293 Cell Line from BPSbioscience. On day 1 SBE reporter-HEK293 cells were seeded at a density of 25,000 cells per well into a white clear-bottom 96-well microplate in 100 μl of growth medium without geneticin. The plate was incubated at 37° C. in a CO2 incubator for 24 hrs. The wells were renewed with 60 μL assay medium and treated with test compounds by adding 5 μL of compounds in medium. The concentration of test compound in medium is adjusted so that 5 μL will provide the desired molarity of the solution. For example, if the desired test concentration is 30 µM, then 5 μL of […] compound is added. After 4 hours, TGFβ was added to 10 ng/mL. The plate was incubated at 37° C. in a CO2 incubator overnight (18 hours). One hour prior to assay all medium was replaced. The luciferase assay was run using ONE-Step™ Luciferase Assay System by adding 100 al of ONE-Step™ Luciferase reagent per well, rocking at room temperature for ~15 to 30 minutes and measuring luminescence using a luminometer. The signals were normalized to percentage inhibition, with non-TGF treated cells as 100% inhibition, and the data were processed by Graphpad Prism.
# Col4a3-deficient mice = assay: Col4a3-deficient mice, model of Alport syndrome (chronic kidney disease); format: in vivo; conditions: 60 mg/kg daily PO
# Description: (§1) Activity of compounds of the invention was confirmed in vivo. Two chronic kidney disease models were employed: (1) Tg26 mice, a model of HIV-associated nephropathy, and (2) Col4a3-null mice, a model of Alport syndrome. Both CKD models are characterized by advanced glomerulosclerosis and tubulointerstitial fibrosis, leading to kidney failure and death approximately between 12 and 20 weeks of age.
# Three-week old Col4a3-deficient mice were treated with Example 13 (60 mg/kg daily, PO) or vehicle for 6 weeks. The median survival in vehicle group was 56 days, which was increased to 68 days in the treated group (21% increase).
# Tg26 mice = assay: Tg26 mice, model of HIV-associated nephropathy (chronic kidney disease); format: in vivo
# Description: as §1
# Tg26 mice of FVB/N genetic background bearing a defective HIV-1 provirus lacking gag-pol have been described by Feng et al. [J Am Soc Nephrol 2009; 20: 2138-2146]. Six-week old heterozygous Tg26 mice are used. Wildtype littermates are used as controls. Mice in the treatment group receive test compound dissolved in 20% NMP, 60% PEG400, and 20% H2O by oral gavage at a dose of 30, 60, or 90 mg/kg body weight per day. Mice in the control group receive the same volume of vehicle. The mice are treated for a total of 4 weeks and sacrificed at age of 10 weeks. […] In another trial, 5- to 6-week old Tg26 mice were treated with Example 13 (90 mg/kg daily, PO) or vehicle for 4 weeks: 38% (8/21 mice) died of kidney failure in the control group within the experimental duration; 0% died in the HIPK2i-174 group (0/18 mice). […] [Because of significant inter-variability of baseline UACR in Tg26 mice at 5-6 weeks of age, the therapeutic effect is calculated based on fold change to baseline for each mouse.]
# [2] = SBE reporter-HEK293 cells, TGFβ 10 ng/mL, 18 hours, read-out: Luciferase IC50
# [3] = another trial, 90 mg/kg daily PO, 4 weeks
# [4] = first trial, four-week treatment, n=8
# [5] = first trial, four-week treatment, vs. vehicle
# [6] = HEK293, 18 h, read-out: Luciferase IC50 nM
structure (smiles),measurement,setting,value
"CC1(C)Oc2ncc(-c3nc(-c4ccc(Cl)cc4)no3)cc2CC1O (stereo in doubt) [Example 13, (S)-6-(3-(4-chlorophenyl)-1,2,4-oxadiazol-5-yl)-2,2-dimethyl-3,4-dihydro-2H-pyrano[2,3-b]pyridin-3-ol]",IC50,[1]; [2],156 nM
same,increase of median survival vs. vehicle group,Col4a3-deficient mice; 6 weeks,21%
same,reduction in kidney fibrosis (picrosirius red staining) in comparison to vehicle group,Col4a3-deficient mice; 6 weeks,~ 51%
same,kidney fibrosis assessed by picrosirius red histological staining,"Col4a3-deficient mice; 6 weeks, n=9",13.7±6.3%
same,reduction of urinary albumin-to-creatinine ratio vs. vehicle,Col4a3-deficient mice; after 6 weeks of treatment,~ 45%
same,urinary albumin-to-creatinine ratio,Col4a3-deficient mice; after 6 weeks of treatment,41.4 ± 14.2 mg/mg
same,median survival,"Col4a3-deficient mice; three-week old mice, 6 weeks",68 days
same,reduction in kidney fibrosis (picrosirius red staining) in comparison to vehicle group,Tg26 mice; [3],~ 37%
same,reduction of urinary albumin-to-creatinine ratio from baseline values,Tg26 mice; [3],~ 57%
same,"urinary albumin-to-creatinine ratio, fold change to baseline","Tg26 mice; another trial, 90 mg/kg daily PO, 4 weeks, n=17",0.43±0.28
same,kidney fibrosis assessed by picrosirius red histological staining,"Tg26 mice; another trial, 90 mg/kg daily PO, 4 weeks, n=18",2.8±1.2%
same,died of kidney failure within the experimental duration,"Tg26 mice; another trial, 5- to 6-week old Tg26 mice, 90 mg/kg daily PO, 4 weeks, 0/18 mice",0%
same,Hazard ratio comparing vehicle vs. treatment,"Tg26 mice; first trial, four-week treatment, Log-rank Mantel-Cox test",7.2
same,average fold change in urinary albumin-to-creatinine ratio from week 0 to week 4,Tg26 mice; [4],0.352
same,"renal fibrosis, average % area",Tg26 mice; [4],2.540%
same,reduction in average fold change in urinary albumin-to-creatinine ratio,Tg26 mice; [5],~ 65%
same,reduction in renal fibrosis area,Tg26 mice; [5],~ 43%
same,survival,"Tg26 mice; first trial, six-week old Tg26 mice, oral gavage 30, 60, or 90 mg/kg per day, four-week treatment, n=20",100%
"CC1(C)Oc2ncc(-c3nc(-c4cccc(Cl)c4)no3)cc2C[C@@H]1O [Example 30, (S)-6-(3-(3-chlorophenyl)-1,2,4-oxadiazol-5-yl)-2,2-dimethyl-3,4-dihydro-2H-pyrano[2,3-b]pyridin-3-ol]",IC50,[1]; [2],136 nM
"CC1(C)Oc2ncc(-c3nc(-c4cccc(Cl)c4)no3)cc2C[C@H]1O [Example 31, (R)-6-(3-(3-chlorophenyl)-1,2,4-oxadiazol-5-yl)-2,2-dimethyl-3,4-dihydro-2H-pyrano[2,3-b]pyridin-3-ol]",IC50,[1]; [2],152 nM
"CC1(C)Oc2ncc(-c3nc(-c4ncco4)no3)cc2C[C@@H]1O [Example 32, (S)-2,2-dimethyl-6-(3-(oxazol-2-yl)-1,2,4-oxadiazol-5-yl)-3,4-dihydro-2H-pyrano[2,3-b]pyridin-3-ol]",IC50,[1]; [6],65 nM
"CC1(C)Oc2ncc(-c3nc(-c4ncco4)no3)cc2C[C@H]1O [Example 33, (3R)-2,2-dimethyl-6-(3-oxazol-2-yl-1,2,4-oxadiazol-5-yl)-3,4-dihydropyrano[2,3-b]pyridin-3-ol]",IC50,[1]; [6],76 nM
"CC1(C)Oc2ncc(-c3nc(-c4ccc(Cl)c(F)c4)no3)cc2C[C@@H]1O [Example 34, (S)-6-(3-(4-chloro-3-fluorophenyl)-1,2,4-oxadiazol-5-yl)-2,2-dimethyl-3,4-dihydro-2H-pyrano[2,3-b]pyridin-3-ol]",IC50,[1]; [6],39 nM
"Cc1cc(-c2noc(-c3cnc4c(c3)C[C@H](O)C(C)(C)O4)n2)ccc1Cl [Example 36, (3S)-6-[3-(4-chloro-3-methyl-phenyl)-1,2,4-oxadiazol-5-yl]-2,2-dimethyl-3,4-dihydropyrano[2,3-b]pyridin-3-ol]",IC50,[1]; [6],52 nM
"Cc1cc(-c2noc(-c3cnc4c(c3)C[C@@H](O)C(C)(C)O4)n2)ccc1Cl [Example 37, (3R)-6-[3-(4-chloro-3-methyl-phenyl)-1,2,4-oxadiazol-5-yl]-2,2-dimethyl-3,4-dihydropyrano[2,3-b]pyridin-3-ol]",IC50,[1]; [2],50 nM
"CC1(C)Oc2ncc(-c3nc(-c4cccc(F)c4)no3)cc2C[C@H]1O [Example 38, (R)-6-(3-(3-fluorophenyl)-1,2,4-oxadiazol-5-yl)-2,2-dimethyl-3,4-dihydro-2H-pyrano[2,3-b]pyridin-3-ol]",IC50,[1]; [2],148 nM
"CC1(C)Oc2ncc(-c3nc(-c4cc(Cl)cc(Cl)c4)no3)cc2C[C@@H]1O [Example 39, (S)-6-(3-(3,5-dichlorophenyl)-1,2,4-oxadiazol-5-yl)-2,2-dimethyl-3,4-dihydro-2H-pyrano[2,3-b]pyridin-3-ol]",IC50,[1]; [6],1250 nM
"CC1(C)Oc2ncc(-c3nc(-c4cc(Cl)cc(Cl)c4)no3)cc2C[C@H]1O [Example 40, (R)-6-(3-(3,5-dichlorophenyl)-1,2,4-oxadiazol-5-yl)-2,2-dimethyl-3,4-dihydro-2H-pyrano[2,3-b]pyridin-3-ol]",IC50,[1]; [2],843 nM
